Measurements as given in ChEMBL document CHEMBL3046863, “Chemical composition and antifungal activity of essential oil of Chrysactinia mexicana gray” (J Agric Food Chem, 2005).
Calls of active or inactive are those of the source. The calls are words filed in the database; no cut-off is given here.

Tests used:
Type in all cases: functional, organism-based
[1] = test system: Aspergillus flavus; assay: Antifungal activity against Aspergillus flavus assessed as inhibition of mycelial growth in dextrose sabouraud broth and Czapek agar at 0.6 mg/ml at 28 +/- 1 degC for 72 hr by dilution technique
[2] = test system: Aspergillus flavus; assay: Antifungal activity against Aspergillus flavus assessed as inhibition of mycelial growth in dextrose sabouraud broth and Czapek agar at 0.5 mg/ml at 28 +/- 1 degC for 72 hr by dilution technique
[3] = test system: Aspergillus flavus; assay: Antifungal activity against Aspergillus flavus assessed as inhibition of mycelial growth in dextrose sabouraud broth and Czapek agar at 0.4 mg/ml at 28 +/- 1 degC for 72 hr by dilution technique
[4] = test system: Aspergillus flavus; assay: Antifungal activity against Aspergillus flavus assessed as inhibition of mycelial growth in dextrose sabouraud broth and Czapek agar at 0.3 mg/ml at 28 +/- 1 degC for 72 hr by dilution technique
[5] = test system: Aspergillus flavus; assay: Antifungal activity against Aspergillus flavus assessed as inhibition of mycelial growth in dextrose sabouraud broth and Czapek agar at 0.2 mg/ml at 28 +/- 1 degC for 72 hr by dilution technique
[6] = test system: Aspergillus flavus; assay: Antifungal activity against Aspergillus flavus assessed as inhibition of mycelial growth in dextrose sabouraud broth and Czapek agar at 0.1 mg/ml at 28 +/- 1 degC for 72 hr by dilution technique
[7] = test system: Sclerotinia sclerotiorum; assay: Antifungal activity against Sclerotinia sclerotiorum assessed as inhibition of mycelial growth in dextrose sabouraud broth and Czapek agar at 28 +/- 1 degC for 72 hr by dilution technique

| SMILES | Activity [1] | Activity [2] | Activity [3] | Activity [4] | Activity [5] | Activity [6] | EC50 [7] [uL/L] |
| --- | --- | --- | --- | --- | --- | --- | --- |
| CC1=CC(=O)C(C(C)C)CC1 (centres undefined) | Active | inactive | inactive | inactive | inactive | inactive |  |
| CC12CCC(CC1)C(C)(C)O2 | inactive | inactive | inactive | inactive | inactive | inactive |  |
| C=CC(C)(CCC=C(C)C)OC(C)=O (centres undefined) [LINALYL ACETATE] | inactive | inactive | inactive | inactive | inactive | inactive | 569.62 |
